Data: PMC12118337, “Development of a Peptide Inhibitor Targeting the C‐SH2 Domain of the SHP2 Phosphatase” (Chembiochem, 2025)
Read-outs that look alike come from different tables or passages of the source. Non-standard residues stand in square brackets, D forms with d. Residues, ends and D or L forms follow the SMILES beside them. F2Pmp = N[C@@H](Cc1ccc(C(F)(F)P(=O)(O)O)cc1)C(=O)O; Pmp = N[C@@H](Cc1ccc(CP(=O)(O)O)cc1)C(=O)O; pY = N[C@@H](Cc1ccc(OP(=O)(O)O)cc1)C(=O)O

Key:
Format in all cases: biochemical
full‐length SHP2 [1] = molecular target: T1, full‐length SHP2 (Homo sapiens, UniProt Q06124); test: DiFMUP phosphatase assay, peptide inhibition in the presence of ITIM-[dPEG4]2-ITSM activator; conditions: for inhibitory activity against SHP2, in words: DiFMUP, 0.5 nM FL SHP2 activated with 26 nM tandem peptide, compared to peptide 21
T1 construct: 1–525) proteins were prepared; His-SUMO3 (pETM11-SUMO3 vector) (N, cleaved yes); made in house; host or cells: E. coli BL21(DE3)
T1 sequence (Q06124 1-525): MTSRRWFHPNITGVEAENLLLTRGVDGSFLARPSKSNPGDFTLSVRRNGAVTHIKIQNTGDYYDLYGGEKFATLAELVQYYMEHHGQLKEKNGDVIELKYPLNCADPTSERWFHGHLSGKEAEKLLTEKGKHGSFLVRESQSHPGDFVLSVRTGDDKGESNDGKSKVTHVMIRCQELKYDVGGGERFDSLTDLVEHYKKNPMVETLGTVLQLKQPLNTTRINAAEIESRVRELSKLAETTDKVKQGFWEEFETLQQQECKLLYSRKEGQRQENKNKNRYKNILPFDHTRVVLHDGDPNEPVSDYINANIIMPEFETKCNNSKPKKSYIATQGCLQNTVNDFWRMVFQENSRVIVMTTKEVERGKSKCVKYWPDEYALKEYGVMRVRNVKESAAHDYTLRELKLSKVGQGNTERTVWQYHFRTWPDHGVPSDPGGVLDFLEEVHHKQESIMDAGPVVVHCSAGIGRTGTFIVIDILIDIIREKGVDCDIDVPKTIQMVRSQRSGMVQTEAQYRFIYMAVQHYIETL
Method: (§1) 6. DiFMUP phosphatase assays
SHP2 dephosphorylation of the fluorogenic substrate 6,8-difluoro-4-methylumbiliferyl phosphate (DiFMUP) was measured to evaluate the effect of acetylated peptides on SHP2 activity. Final concentrations of 0.5 nM full-length SHP2, 200 µM DiFMUP (Invitrogen) and 26 nM bisphosphorylated tandem ITIM-[dPEG4]2-ITSM (CASLO ApS) were used, unless stated otherwise, per well in 96-well plates (OptiPlate-96 F Black; PerkinElmer). For peptide activation assays, each well contained 60 µL of reaction buffer (50 mM HEPES pH 7.6, 150 mM NaCl, 1 mM EDTA, 0.05% Tween 20, freshly added 5 mM DTT), 10 µL of SHP2 and 20 µL of the test peptide (0.096 nM – 51.2 µM final concentration). For peptide inhibition assays in the presence of a SHP2 activator, each well contained 40 µL of reaction buffer (50 mM HEPES pH 7.6, 150 mM NaCl, 1 mM EDTA, 0.05% Tween 20, freshly added 5 mM DTT), 10 µL of SHP2 and 40 µL of previously mixed bisphosphorylated tandem ITIM-[dPEG4]2-ITSM activator and test peptide (0.096 nM – 51.2 µM or 0.376 nM – 200 µM final concentration). To obtain the maximal activity, 10 µL of SHP2 and 20 µL of bisphosphorylated tandem ITIM-[dPEG4]2-ITSM activator was added to 60 µL of buffer. Samples were incubated for 20 minutes at room temperature and then 10 µL of DiFMUP was added to each sample, to give a final volume of 100 µL per well. For background subtraction, 10 µL of DiFMUP was added to 80 µL of buffer. The fluorescence was immediately measured on a Synergy H1 Microplate Reader (BioTek) with the excitation and emission monitored at 358 nm and 452 nm, respectively, over 30 minutes. Data were analysed in Excel 2016 by subtracting background values from emission values and calculating the slope of the emission profiles. Data were then further analysed in GraphPad Prism 6 by either: 1) plotting the slope against the peptide concentration and fitting the data to a variable slope model of non-linear regression; or 2) normalising the data to the maximal activity (SHP2 in the presence of ITIM-[dPEG4]2-ITSM; set to 100% activity) to obtain the % activity, plotting the % activity against the peptide concentration and fitting the data to a variable slope model of non-linear regression to obtain the IC50 values. Data are from two or three independent experiments, each performed in […]

full‐length SHP2 [2] = molecular target: T1, full‐length SHP2; test: DiFMUP phosphatase assay, peptide activation (no activator); conditions: 0.5 nM full-length SHP2, no tandem activator, peptide 0.096 nM – 51.2 µM
Method: as §1
SHP2 dephosphorylation of the fluorogenic substrate 6,8-difluoro-4-methylumbiliferyl phosphate (DiFMUP) was measured to evaluate the effect of acetylated peptides on SHP2 activity. Final concentrations of 0.5 nM full-length SHP2, 200 µM DiFMUP (Invitrogen) and 26 nM bisphosphorylated tandem ITIM-[dPEG4]2-ITSM (CASLO ApS) were used, unless stated otherwise, per well in 96-well plates (OptiPlate-96 F Black; PerkinElmer). For peptide activation assays, each well contained 60 µL of reaction buffer (50 mM HEPES pH 7.6, 150 mM NaCl, 1 mM EDTA, 0.05% Tween 20, freshly added 5 mM DTT), 10 µL of SHP2 and 20 µL of the test peptide (0.096 nM – 51.2 µM final concentration). For peptide inhibition assays in the presence of a SHP2 activator, each well contained 40 µL of reaction buffer (50 mM HEPES pH 7.6, 150 mM NaCl, 1 mM EDTA, 0.05% Tween 20, freshly added 5 mM DTT), 10 µL of SHP2 and 40 µL of previously mixed bisphosphorylated tandem ITIM-[dPEG4]2-ITSM activator and test peptide (0.096 nM – 51.2 µM or 0.376 nM – 200 µM final concentration). […] The fluorescence was immediately measured on a Synergy H1 Microplate Reader (BioTek) with the excitation and emission monitored at 358 nm and 452 nm, respectively, over 30 minutes. Data were analysed in Excel 2016 by subtracting background values from emission values and calculating the slope of the emission profiles. […]

[3] = tested on: full‐length SHP2 or isolated PTP domain; test: EnzChek phosphate assay (peptide as substrate); conditions: 50 nM full-length SHP2 or PTP domain, peptide 25–800 µM, absorbance 360 nm, three independent experiments
Method: 7. EnzChek phosphate assays
The EnzChek Phosphate Assay Kit (Thermo Fisher Scientific), which measures the release of inorganic phosphate generated from an enzymatic reaction, was used to evaluate Ac-ITSM(pTyr) and acetylated peptide 21 as potential substrates of SHP2. A reaction mixture consisting of 43 µL of dH2O, 0.5 µL of 1 M DTT ([…]), 5 µL of 20X reaction buffer, 20 µL of 2-amino-6-mercapto-7-methylpurine riboside (MESG) solution, 1.5 µL of purine nucleoside phosphorylase (PNP) solution and 10 µL of 0.5 µM full-length SHP2 or PTP domain (50 nM final concentration) was added to each well in a 96-well plate (SpectraPlate-96 MB; PerkinElmer). Samples were incubated for 10 minutes at room temperature and then 20 µL of Ac-ITSM(pTyr) or peptide 21 (final concentrations: 800 µM, 400 µM, 200 µM, 100 µM, 25 µM) was added to give a final volume of 100 µL per well. The absorbance was immediately measured at 360 nm on a Synergy H1 Microplate Reader (BioTek).
Data were analysed in GraphPad Prism 6 by plotting the absorbance against the peptide concentration. Data are from three independent experiments, each performed in technical triplicates.

In the case of `CC[C@H](C)[C@H](NC(=O)[C@@H](NC(=O)[C@H](C)NC(=O)[C@H](Cc1ccc(OP(=O)(O)O)cc1)NC(=O)[C@H](CCC(=O)O)NC(=O)[C@@H](NC(=O)[C@H](CCC(N)=O)NC(C)=O)[C@@H](C)O)[C@@H](C)O)C(=O)N[C@@H](CCCCN)C(=O)N[C@@H](Cc1c[nH]cn1)C(=O)N1CCC[C@H]1C(N)=O` [peptide 21] (Ac-QTE[pY]ATIKHP-NH2), the IC50 (full‐length SHP2 [1]; 0.5 nM full-length SHP2 activated with 26 nM bisphosphorylated ITIM-[dPEG4]2-ITSM, 200 µM DiFMUP, pH 7.6, 20 min pre-incubation at room temperature, two or three independent experiments in technical triplicates, read-out: IC50 ± SEM (DiFMUP activity assay)) is reported as 1050 ± 502 nM, the “SHP2 phosphatase activity with peptide alone (activation)” value (full‐length SHP2 [2]) is reported as “activated SHP2 only minimally at the highest peptide concentration” and the “suitability as substrate of SHP2 (dephosphorylation)” value [3] is reported as “not a good SHP2 substrate”.
For `CC[C@H](C)[C@H](NC(=O)[C@@H](NC(=O)[C@H](C)NC(=O)[C@H](Cc1ccc(C(F)(F)P(=O)(O)O)cc1)NC(=O)[C@H](CCC(=O)O)NC(=O)[C@@H](NC(=O)[C@H](CCC(N)=O)NC(C)=O)[C@@H](C)O)[C@@H](C)O)C(=O)N[C@@H](CCCCN)C(=O)N[C@@H](Cc1c[nH]cn1)C(=O)N1CCC[C@H]1C(N)=O` [peptide 22] (Ac-QTE[F2Pmp]ATIKHP-NH2), the IC50 (full‐length SHP2 [1]) was over 51200 nM and the “inhibitory activity against SHP2, in words” value (full‐length SHP2 [1]) was “loss of inhibitory activity”.
For `CC[C@H](C)[C@H](NC(=O)[C@@H](NC(=O)[C@H](C)NC(=O)[C@H](Cc1ccc(CP(=O)(O)O)cc1)NC(=O)[C@H](CCC(=O)O)NC(=O)[C@@H](NC(=O)[C@H](CCC(N)=O)NC(C)=O)[C@@H](C)O)[C@@H](C)O)C(=O)N[C@@H](CCCCN)C(=O)N[C@@H](Cc1c[nH]cn1)C(=O)N1CCC[C@H]1C(N)=O` [peptide 23] (Ac-QTE[Pmp]ATIKHP-NH2), the “IC50 ± SEM (DiFMUP activity assay)” value (full‐length SHP2 [1]; 0.5 nM full-length SHP2 activated with 26 nM bisphosphorylated ITIM-[dPEG4]2-ITSM, 200 µM DiFMUP, pH 7.6, 20 min pre-incubation at room temperature, two or three independent experiments in technical triplicates) was “No inhibition” and the “inhibitory activity against SHP2, in words” value (full‐length SHP2 [1]) was “loss of inhibitory activity”.
